Columns and labels:
Assay type in all cases: cell-based, human
[1] = tested on: gastric (AGS) cancer cell line; assay: MTS proliferation assay, AGS; conditions: for viability (anti-proliferative activity), MTS: as a function of time, triplicate
From the text: FIGS. 10A-10F compare anti-proliferative activity of 10 nmoles of compounds −0045 and −0052 against gastric (AGS) (FIGS. 10B and 10C, respectively) and pancreatic (ASPC1) (FIGS. 10E and 10F, respectively) cancer cell lines, as measured as a function of time and compared to palbociclib (−000) (FIGS. 10A-AGS; and 10D-ASPC1) using standard MTS assays in the indicated cell lines; results were in triplicate with reported experimental uncertainty.
FIGS. 11A-11F compare anti-proliferative activity of 5 nmoles of compounds −0045 and −0052 against gastric (AGS) (FIGS. 11B and 11C, respectively) and pancreatic (ASPC1) (FIGS. 11E and 11F, respectively) cancer cell lines, as measured as a function of time and compared to palbociclib (−000) (FIGS. 11A-AGS; and 11D-ASPC1), using standard MTS assays in the indicated cell lines; results were in triplicate with reported experimental uncertainty.
The anti-proliferative activity of compounds −0045 and −0052 in two cell lines characterized by high levels of miR-21 (gastric adenocarcinoma (AGS) and pancreatic (ASPC1) cancer origin) was determined. These experiments were conducted in a double-blind format, without knowledge of the identity or binding activity of the compounds, to avoid any unintentional bias. […] Viability in the presence of both palbociclib and compound −0052 is decreased after approximately 72-96 hrs to a statistically significant extent (data points marked with asterisks are statistically significant).
(§1) Cell line maintenance. Using the Cancer Cell Line Encyclopedia (CCLE), in-house cancer cell lines were screened to identify cancer and tissue types with varying levels of miR-21 expression. Experiments were performed using the human-derived cell lines AGS (gastric cancer) and AsPC-1 (pancreatic cancer). Cell lines were obtained from the American Type Culture Collection and maintained per instructions from the supplier. AGS were cultured in F12K medium supplemented with 10% FBS. AsPC-1 were cultured in RPMI, with 10% FBS added. All cells were kept at 37° C. in a humidified atmosphere of 5% CO2 and underwent regular mycoplasma testing. All experiments were conducted when cells were 70-80% confluent.
Proliferation assay. The impact of the compound on cellular proliferation was assessed, with 5,000 cells in each cell line seeded in replicates of 6 in a 96 well plate and treated with DMSO or with compounds. After 48 hours, cells were treated with the MTS reagent and optical density was read to generate dose-response curves.

[2] = tested on: mature miR-21 and pre-miR-21 in ASPC1 cells; assay: qRT-PCR of mature miR-21 and pre-miR-21 in ASPC1 cells; conditions: ASPC1, 10 nmoles, 48 hours, relative to DMSO control
Method: FIGS. 13A-13D compare levels of mature miR-21 and pre-mi-21 measured in gastric adenocarcinoma (AGS) (FIGS. 13A and 13B, respectively) and pancreatic cancer cell line (ASPC 1) (FIGS. 13C and 13D, respectively), normalized to internal controls (U6 or U8 snRNA), in the presence of 10 nmoles of palbociclib (used here as a negative control, not expected to affect microRNA levels) and compounds −0045 and −0052, 48 hours after incubation, relative to DMSO control, and measured by standard qRT-PCR. Statistically significant changes are labeled with asterisks.
Levels of mature miR-21 and its precursor pre-miR-21 were measured in gastric carcinoma (ASG) and pancreatic (ASPC1) cancer cell lines under conditions where we observed a decrease in proliferation (FIGS. 13A-13D), using the same blind format described above.
as §1
Quantitative real time PCR analysis. RNA was isolated utilizing Trizol (Invitrogen) and the Direct-zol RNA Miniprep kit (Zymo Research). RNA concentration was assessed with the NanoDrop ND-1000 spectrophotometer (ThermoFisher Scientific). All microRNAs expression was tested in the two representative cell lines using qRT-PCR. Cells were seeded in 6-well plates 24 hours before treatment, at a cell confluency of 50-60%. Each cell line was treated with 10 μM compound or with only the dimethyl sulfoxide (DMSO) solvent. RNA was collected after the 48-hour time point. Expression of miR-21 was assessed utilizing the TaqMan microRNA assay (Applied Biosystems). The complementary DNA (cDNA) was synthesized using the TaqMan Reverse Transcription Reagents kit (Applied Biosystems) and was used with the TaqMan probes and Supermix (BioRad) for qRT-PCR analysis. U6 or U48 were used as internal controls for RNA levels. All experiments were performed in triplicate, with all samples normalized to the internal controls and relative expression levels calculated using the 2^ΔΔCt method.

[3] = tested on: mature miR-10b in ASPC1 cells; assay: qRT-PCR of mature miR-10b in ASPC1 cells; conditions: ASPC1, 10 nmoles, 48 hours, relative to DMSO control
Method: FIGS. 14A-14D compare levels of mature miR-10b and pre-miR-10b measured in gastric adenocarcinoma (AGS) (FIGS. 14A and 14B, respectively) and pancreatic cancer cell line (ASPC 1) (FIGS. 14C and 14D, respectively), normalized to internal controls (U6 or U8 snRNA), in the presence of 10 nmoles of palbociclib (a negative control not expected to directly affect miRNA levels) and compounds −0045 and −0052, 48 hours after incubation, relative to DMSO control, and measured by standard qRT-PCR. We notice that levels of pre-miR-10b are very low in both cell lines, rendering the data very uncertain. Statistically significant changes are labeled with asterisks.
In order to investigate whether inhibition was specific to miR-21, levels of mature miR-10b and pre-miR-10b were examined in the same cell lines (FIGS. 14A-14D); this is another oncogenic microRNA implicated in metastasis. […]
Quantitative real time PCR analysis. […] RNA concentration was assessed with the NanoDrop ND-1000 spectrophotometer (ThermoFisher Scientific). […] Expression of miR-21 was assessed utilizing the TaqMan microRNA assay (Applied Biosystems). […] All experiments were performed in triplicate, with all samples normalized to the internal controls and relative expression levels calculated using the 2^ΔΔCt method.

Row | SMILES | viability (anti-proliferative activity), MTS ([1]; 5 nmoles of compound) | viability (anti-proliferative activity), MTS ([1]; 10 nmoles of compound) | cell killing activity, MTS over 6 days ([1]; both concentrations tested (10 and 5 nmols), double-blind) | decrease in mature miR-21 levels [2] [%] | pre-miR-21 levels [2] | reduction of levels of mature miR-10b [3] | change in levels of mature miR-10b [3]
1 | O=c1[nH]c(Nc2ccc(N3CCNCC3)cn2)nc2cnccc12 [Compound 30] | reduce the viability of both cell lines to a statistically significant extent | reduce the viability of both cell lines to a statistically significant extent | Cell killing activity | 40 | reduction in pre-miR-21 levels | about 2 fold | 
2 | O=c1[nH]c(Nc2ccc(N3CCNCC3)cn2)nc2cccnc12 [Compound 25] | does not | does not |  | 40 | reduction in pre-miR-21 levels |  | smaller and not statistically significant changes

From patent US20230416247A1, “DRUG-LIKE MOLECULES AND METHODS FOR THE THERAPEUTIC TARGETING OF MICRORNA-21” (University of Washington, priority 2020, published 2023)
